The values below come from the NIST ThermoML archive (doi:10.1021/je020107x).

Numbers after ± are expanded uncertainties.

Broadly, the refractive index is a measure of how strongly the sample bends light.

This data set can be described thus: refractive index (Na D-line) (dimensionless). The note with it: 298.15 K; 101.33 kPa; Liquid; Standard Abbe refractometry.
For `Clc1ccccc1` [chlorobenzene], the refractive index is 1.5218 ± 0.0005. `Clc1ccccc1Cl` [1,2-dichlorobenzene]: the refractive index is recorded as 1.5491 ± 0.0005. The value for `Clc1ccc(Cl)c(Cl)c1` [1,2,4-trichlorobenzene] was 1.522 ± 0.0005. Consider `Clc1cccc(Cl)c1` [1,3-dichlorobenzene], for which the refractive index was determined as 1.5432 ± 0.0005. The value for `CCCCCCCCCCCC` [dodecane] was 1.4275 ± 0.0005; that for `CCCCCCCCCCCCCCCC` [hexadecane] was 1.4325 ± 0.0005; that for `CCCCCC` [hexane] was 1.3728 ± 0.0005.
